From ChEMBL document CHEMBL1201862, “PubChem BioAssay data set” (2004)
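Compound exposure: 48 hours, 5 concentrations, 96-well plates. GI50 marks 50% less growth.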 Active and inactive are the calls of the source. Rule as the data show it: active = GI50 up to about 1.1 µM and inactive = higher.

Experiments:
Assay in all cases: NCI-60 cell line screen, 48 h
M14 = system: M14
OVCAR-3 = system: OVCAR-3
A549 = system: A549
A498 = system: A498
COLO 205 = system: COLO 205
HL-60 = system: HL-60
NCI-H23 = system: NCI-H23
U-251 = system: U-251
CAKI-1 = system: CAKI-1
MCF7 = system: MCF7
HCT-116 = system: HCT-116
CCRF-CEM = system: CCRF-CEM
T47D = system: T47D
PC-3 = system: PC-3
Malme-3M = system: Malme-3M
MDA-N = system: MDA-N
NCI-H226 = system: NCI-H226
HOP-62 = system: HOP-62
SNB-19 = system: SNB-19
UACC-257 = system: UACC-257
KM12 = system: KM12
TK-10 = system: TK-10
NCI-H460 = system: NCI-H460
SW-620 = system: SW-620
HT-29 = system: HT-29
UO-31 = system: UO-31
NCI/ADR-RES = system: NCI/ADR-RES
SK-MEL-5 = system: SK-MEL-5
SK-OV-3 = system: SK-OV-3
SK-MEL-28 = system: SK-MEL-28
SNB-75 = system: SNB-75
OVCAR-8 = system: OVCAR-8
IGROV-1 = system: IGROV-1
SF-268 = system: SF-268
MDA-MB-231 = system: MDA-MB-231
SR = system: SR
HCT-15 = system: HCT-15
UACC-62 = system: UACC-62
HOP-92 = system: HOP-92
BT-549 = system: BT-549
MDA-MB-435 = system: MDA-MB-435
SF-295 = system: SF-295
SN12C = system: SN12C
DU-145 = system: DU-145
MOLT-4 = system: MOLT-4
NCI-H522 = system: NCI-H522
ACHN = system: ACHN
OVCAR-5 = system: OVCAR-5
SK-MEL-2 = system: SK-MEL-2
786-0 = system: 786-0
SF-539 = system: SF-539
Hs-578T = system: Hs-578T
LOX IMVI = system: LOX IMVI
K562 = system: K562
OVCAR-4 = system: OVCAR-4
RXF 393 = system: RXF 393
RPMI-8226 = system: RPMI-8226
HCC 2998 = system: HCC 2998
EKVX = system: EKVX

O=C(NC(=S)Nc1ccc([N+](=O)[O-])cc1)c1ccc2c(c1)Sc1ccccc1O2
GI50 (M14): > 100 µM (inactive)
GI50 (OVCAR-3): > 100 µM (inactive)
GI50 (A549): > 100 µM (inactive)
GI50 (A498): > 100 µM (inactive)
GI50 (COLO 205): > 100 µM (inactive)
GI50 (HL-60): > 100 µM (inactive)
GI50 (NCI-H23): > 100 µM (inactive)
GI50 (U-251): 37 µM (inactive)
GI50 (CAKI-1): > 100 µM (inactive)
GI50 (MCF7): > 100 µM (inactive)
GI50 (HCT-116): > 100 µM (inactive)
GI50 (CCRF-CEM): > 100 µM (inactive)
GI50 (T47D): 24.6 µM (inactive)
GI50 (PC-3): > 100 µM (inactive)
GI50 (Malme-3M): 65.8 µM (inactive)
GI50 (MDA-N): > 100 µM (inactive)
GI50 (NCI-H226): > 100 µM (inactive)
GI50 (HOP-62): 78.5 µM (inactive)
GI50 (SNB-19): 53.3 µM (inactive)
GI50 (UACC-257): > 100 µM (inactive)
GI50 (KM12): > 100 µM (inactive)
GI50 (TK-10): 44.2 µM (inactive)
GI50 (NCI-H460): > 100 µM (inactive)
GI50 (SW-620): > 100 µM (inactive)
GI50 (HT-29): > 100 µM (inactive)
GI50 (UO-31): > 100 µM (inactive)
GI50 (NCI/ADR-RES): > 100 µM (inactive)
GI50 (SK-MEL-5): > 100 µM (inactive)
GI50 (SK-OV-3): 77.1 µM (inactive)
GI50 (SK-MEL-28): > 100 µM (inactive)
GI50 (SNB-75): 13.8 µM (inactive)
GI50 (OVCAR-8): > 100 µM (inactive)
GI50 (IGROV-1): 98.2 µM (inactive)
GI50 (SF-268): 30.2 µM (inactive)
GI50 (MDA-MB-231): > 100 µM (inactive)
GI50 (SR): > 100 µM (inactive)
GI50 (HCT-15): > 100 µM
GI50 (UACC-62): 71.3 µM (inactive)
GI50 (HOP-92): 37.3 µM (inactive)
GI50 (BT-549): > 100 µM (inactive)
GI50 (MDA-MB-435): > 100 µM (inactive)
GI50 (SF-295): 89.1 µM (inactive)
GI50 (SN12C): > 100 µM (inactive)
GI50 (DU-145): > 100 µM (inactive)
GI50 (MOLT-4): > 100 µM (inactive)
GI50 (NCI-H522): 48.1 µM (inactive)
GI50 (ACHN): 49.9 µM (inactive)
GI50 (OVCAR-5): > 100 µM (inactive)
GI50 (SK-MEL-2): 99.1 µM (inactive)
GI50 (786-0): 44.8 µM (inactive)
GI50 (SF-539): 45.7 µM (inactive)
GI50 (Hs-578T): 32.8 µM (inactive)
GI50 (LOX IMVI): > 100 µM (inactive)
GI50 (K562): > 100 µM (inactive)

C[C@H](C1CC(C)(O)C(C)(O)C(O)O1)[C@H]1CC[C@H]2[C@@H]3[C@@H]4O[C@@H]4[C@@]4(O)CC=CC(=O)[C@]4(C)[C@H]3CC[C@]12C (stereo partly specified)
GI50 (M14): > 50 µM (inactive)
GI50 (OVCAR-4): > 50 µM (inactive)
GI50 (OVCAR-3): > 50 µM (inactive)
GI50 (A549): > 50 µM (inactive)
GI50 (A498): 22.4 µM (inactive)
GI50 (COLO 205): > 50 µM (inactive)
GI50 (HL-60): > 50 µM (inactive)
GI50 (RXF 393): 22.1 µM (inactive)
GI50 (NCI-H23): > 50 µM (inactive)
GI50 (U-251): > 50 µM (inactive)
GI50 (CAKI-1): > 50 µM (inactive)
GI50 (MCF7): > 50 µM (inactive)
GI50 (HCT-116): 36.9 µM (inactive)
GI50 (CCRF-CEM): > 50 µM (inactive)
GI50 (T47D): > 50 µM (inactive)
GI50 (PC-3): > 50 µM (inactive)
GI50 (Malme-3M): 2.67 µM (inactive)
GI50 (MDA-N): > 50 µM (inactive)
GI50 (NCI-H226): 22.9 µM (inactive)
GI50 (HOP-62): 27.8 µM (inactive)
GI50 (SNB-19): > 50 µM (inactive)
GI50 (UACC-257): > 50 µM (inactive)
GI50 (KM12): > 50 µM (inactive)
GI50 (RPMI-8226): > 50 µM (inactive)
GI50 (TK-10): > 50 µM (inactive)
GI50 (NCI-H460): > 50 µM (inactive)
GI50 (SW-620): > 50 µM (inactive)
GI50 (HT-29): > 50 µM (inactive)
GI50 (UO-31): 7.55 µM (inactive)
GI50 (NCI/ADR-RES): > 50 µM (inactive)
GI50 (SK-MEL-5): > 50 µM (inactive)
GI50 (SK-OV-3): 14.8 µM (inactive)
GI50 (SK-MEL-28): > 50 µM (inactive)
GI50 (HCC 2998): > 50 µM (inactive)
GI50 (SNB-75): 20.9 µM (inactive)
GI50 (OVCAR-8): 30.4 µM (inactive)
GI50 (IGROV-1): > 50 µM (inactive)
GI50 (SF-268): 5.31 µM (inactive)
GI50 (MDA-MB-231): 44 µM (inactive)
GI50 (HCT-15): > 50 µM
GI50 (UACC-62): > 50 µM (inactive)
GI50 (HOP-92): 33.6 µM (inactive)
GI50 (BT-549): > 50 µM (inactive)
GI50 (MDA-MB-435): > 50 µM (inactive)
GI50 (SF-295): > 50 µM (inactive)
GI50 (SN12C): > 50 µM (inactive)
GI50 (DU-145): > 50 µM (inactive)
GI50 (MOLT-4): > 50 µM (inactive)
GI50 (NCI-H522): 18.2 µM (inactive)
GI50 (ACHN): 45.4 µM (inactive)
GI50 (OVCAR-5): > 50 µM (inactive)
GI50 (EKVX): > 50 µM (inactive)
GI50 (SK-MEL-2): > 50 µM (inactive)
GI50 (786-0): 15.5 µM (inactive)
GI50 (Hs-578T): 0.039 µM (active)
GI50 (LOX IMVI): > 50 µM (inactive)
GI50 (K562): > 50 µM (inactive)

CC(=O)Nc1ccc2nncnc2c1
GI50 (M14): > 100 µM (inactive)
GI50 (OVCAR-4): > 100 µM (inactive)
GI50 (OVCAR-3): > 100 µM (inactive)
GI50 (A549): > 100 µM (inactive)
GI50 (A498): > 100 µM (inactive)
GI50 (COLO 205): > 100 µM (inactive)
GI50 (HL-60): > 100 µM (inactive)
GI50 (NCI-H23): > 100 µM (inactive)
GI50 (U-251): > 100 µM (inactive)
GI50 (CAKI-1): > 100 µM (inactive)
GI50 (MCF7): > 100 µM (inactive)
GI50 (HCT-116): > 100 µM (inactive)
GI50 (CCRF-CEM): > 100 µM (inactive)
GI50 (T47D): > 100 µM (inactive)
GI50 (PC-3): > 100 µM (inactive)
GI50 (MDA-N): > 100 µM (inactive)
GI50 (NCI-H226): > 100 µM (inactive)
GI50 (HOP-62): > 100 µM (inactive)
GI50 (SNB-19): > 100 µM (inactive)
GI50 (UACC-257): > 100 µM (inactive)
GI50 (KM12): > 100 µM (inactive)
GI50 (RPMI-8226): > 100 µM (inactive)
GI50 (TK-10): > 100 µM (inactive)
GI50 (NCI-H460): > 100 µM (inactive)
GI50 (SW-620): > 100 µM (inactive)
GI50 (HT-29): > 100 µM (inactive)
GI50 (UO-31): > 100 µM (inactive)
GI50 (NCI/ADR-RES): > 100 µM (inactive)
GI50 (SK-MEL-5): > 100 µM (inactive)
GI50 (SK-OV-3): > 100 µM (inactive)
GI50 (SK-MEL-28): > 100 µM (inactive)
GI50 (SNB-75): > 100 µM (inactive)
GI50 (OVCAR-8): > 10 µM (inactive)
GI50 (IGROV-1): > 100 µM (inactive)
GI50 (SF-268): > 100 µM (inactive)
GI50 (MDA-MB-231): > 100 µM (inactive)
GI50 (SR): > 100 µM (inactive)
GI50 (HCT-15): > 100 µM
GI50 (UACC-62): > 100 µM (inactive)
GI50 (BT-549): > 100 µM (inactive)
GI50 (MDA-MB-435): > 100 µM (inactive)
GI50 (SF-295): > 100 µM (inactive)
GI50 (SN12C): > 100 µM (inactive)
GI50 (DU-145): > 100 µM (inactive)
GI50 (MOLT-4): > 100 µM (inactive)
GI50 (NCI-H522): > 100 µM (inactive)
GI50 (ACHN): > 100 µM (inactive)
GI50 (OVCAR-5): > 100 µM (inactive)
GI50 (EKVX): > 100 µM (inactive)
GI50 (SK-MEL-2): > 100 µM (inactive)
GI50 (786-0): > 100 µM (inactive)
GI50 (SF-539): > 100 µM (inactive)
GI50 (Hs-578T): 77.6 µM (inactive)
GI50 (LOX IMVI): > 100 µM (inactive)
GI50 (K562): > 100 µM (inactive)
